Assays:
nutsedge, yellow = experiment: Test C pre-/postemergence herbicide test; assay type: in vivo, Cyperus esculentus; conditions: for Nutsedge, Yellow plant response rating: scale 0 to 100, 0 is no effect and 100 is complete control
Method in brief: (§1)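 Response scores range from 0, meaning no effect, to 100, meaning complete control, assigned visually by comparison with controls roughly two weeks (13 to 15 days) after spraying. Applications were made preemergence to seeded loam–sand soil and postemergence to 1- to 4-leaf plants.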

barnyardgrass [1] = experiment: Test A pre-/postemergence herbicide test; assay type: in vivo, Echinochloa crus-galli; conditions: for Barnyardgrass plant response rating: Preemergence, visual rating on 0 to 100 scale (0 no effect, 100 complete control)
Method in brief: (§2)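 Scoring was visual, relative to untreated controls, on a 0–100 scale after about 10 greenhouse days. Preemergence treatment used a directed soil spray over seeded loam/sand; postemergence treatment targeted one- to two-leaf plants of 2–10 cm.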

oilseed rape = experiment: Test C pre-/postemergence herbicide test; assay type: in vivo, Brassica napus; conditions: for Oilseed Rape plant response rating: scale 0 to 100, 0 is no effect and 100 is complete control
Method in brief: as §1

ducksalad = experiment: Test B flooded paddy test; assay type: in vivo, Heteranthera limosa; conditions: 250 g ai/ha, Flood; scale of 0 to 100 where 0 is no effect and 100 is complete control
Method in brief: (§3)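 First, plants reach the 2-leaf stage; next, pots are flooded to 3 cm and compound is delivered into the water; finally, after 13 to 15 greenhouse days at constant depth, injury is graded visually from 0 to 100 against controls.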

rice = experiment: Test B flooded paddy test; assay type: in vivo, Oryza sativa; conditions: 250 g ai/ha, Flood; scale of 0 to 100 where 0 is no effect and 100 is complete control
Method in brief: as §3

pigweed = experiment: Test A pre-/postemergence herbicide test; assay type: in vivo, Amaranthus retroflexus; conditions: for Pigweed plant response rating: Preemergence, visual rating on 0 to 100 scale (0 no effect, 100 complete control)
Method in brief: as §2

foxtail, giant = experiment: Test C pre-/postemergence herbicide test; assay type: in vivo, Setaria faberii; conditions: for Foxtail, Giant plant response rating: scale 0 to 100, 0 is no effect and 100 is complete control
Method in brief: as §1

corn [2] = experiment: Test C pre-/postemergence herbicide test; assay type: in vivo, Zea mays; conditions: for Corn plant response rating: scale 0 to 100, 0 is no effect and 100 is complete control
Method in brief: as §1

corn [3] = experiment: Test A pre-/postemergence herbicide test; assay type: in vivo, Zea mays; conditions: for Corn plant response rating: Preemergence, visual rating on 0 to 100 scale (0 no effect, 100 complete control)
Method in brief: as §2

barnyardgrass [4] = experiment: Test C pre-/postemergence herbicide test; assay type: in vivo, Echinochloa crus-galli; conditions: for Barnyardgrass plant response rating: scale 0 to 100, 0 is no effect and 100 is complete control
Method in brief: as §1

barnyardgrass [5] = experiment: Test B flooded paddy test; assay type: in vivo, Echinochloa crus-galli; conditions: 250 g ai/ha, Flood; scale of 0 to 100 where 0 is no effect and 100 is complete control
Method in brief: as §3

soybean = experiment: Test C pre-/postemergence herbicide test; assay type: in vivo, Glycine max; conditions: for Soybean plant response rating: scale 0 to 100, 0 is no effect and 100 is complete control
Method in brief: as §1

[6] = Postemergence, 31 g ai/ha, scale 0 (no effect) to 100 (complete control)
[7] = Postemergence, 62 g ai/ha, scale 0 to 100 (0 no effect, 100 complete control)
[8] = Postemergence, 125 g ai/ha, scale 0 to 100 (0 no effect, 100 complete control)
[9] = Postemergence, 250 g ai/ha, scale 0 to 100 (0 no effect, 100 complete control)
[10] = Preemergence, 62 g ai/ha, scale 0 to 100
[11] = Preemergence, 125 g ai/ha, scale 0 to 100 (0 no effect, 100 complete control)
[12] = Postemergence, 125 g ai/ha, 0 to 100 scale, 0 no effect, 100 complete control
[13] = Postemergence, 500 g ai/ha, 0 to 100 scale (0 no effect, 100 complete control)
[14] = preemergence, 500 g ai/ha, 0 to 100 scale (0 no effect, 100 complete control)
[15] = preemergence, 500 g ai/ha, 0 to 100 scale

O=C1NCC(c2ccc(F)c(C(F)(F)F)c2)C1C(=O)Nc1ccccc1F (racemic) [Compound 76]
Plant response rating, Nutsedge, Yellow (nutsedge, yellow; [6]): 0 | Plant response rating, Nutsedge, Yellow (nutsedge, yellow; [7]): 0 | Plant response rating, Nutsedge, Yellow (nutsedge, yellow; [8]): 0 | Plant response rating, Nutsedge, Yellow (nutsedge, yellow; [9]): 0 | Nutsedge, Yellow plant response rating (nutsedge, yellow; Preemergence, 31 g ai/ha): 0 | Plant response rating, Nutsedge, Yellow (nutsedge, yellow; [10]): 0 | Plant response rating, Nutsedge, Yellow (nutsedge, yellow; [11]): 20 | Plant response rating (scale of 0 to 100), Nutsedge, Yellow (nutsedge, yellow; Preemergence, 250 g ai/ha): 55 | Plant response rating, Barnyardgrass (barnyardgrass [1]; [12]): 80 | Plant response rating, Barnyardgrass (barnyardgrass [1]; [13]): 90 | Barnyardgrass plant response rating (barnyardgrass [1]; 125 g ai/ha): 80 | Plant response rating, Barnyardgrass (barnyardgrass [1]; [14]): 80 | Plant response rating, Oilseed Rape (oilseed rape; [6]): 0 | Plant response rating, Oilseed Rape (oilseed rape; [7]): 0 | Plant response rating, Oilseed Rape (oilseed rape; [8]): 0 | Plant response rating, Oilseed Rape (oilseed rape; [9]): 10 | Oilseed Rape plant response rating (oilseed rape; Preemergence, 31 g ai/ha): 0 | Plant response rating, Oilseed Rape (oilseed rape; [10]): 0 | Plant response rating, Oilseed Rape (oilseed rape; [11]): 30 | Plant response rating (scale of 0 to 100), Oilseed Rape (oilseed rape; Preemergence, 250 g ai/ha): 75 | Plant response rating, Ducksalad (ducksalad): 90 | Plant response rating, Rice (rice): 0 | Plant response rating, Pigweed (pigweed; [12]): 50 | Plant response rating, Pigweed (pigweed; [13]): 60 | Pigweed plant response rating (pigweed; 125 g ai/ha): 0 | Plant response rating, Pigweed (pigweed; [15]): 50 | Plant response rating, Foxtail, Giant (foxtail, giant; [6]): 0 | Plant response rating, Foxtail, Giant (foxtail, giant; [7]): 5 | Plant response rating, Foxtail, Giant (foxtail, giant; [8]): 20 | Plant response rating, Foxtail, Giant (foxtail, giant; [9]): 70 | Foxtail, Giant plant response rating (foxtail, giant; Preemergence, 31 g ai/ha): 90 | Plant response rating, Foxtail, Giant (foxtail, giant; [10]): 95 | Plant response rating, Foxtail, Giant (foxtail, giant; [11]): 95 | Plant response rating (scale of 0 to 100), Foxtail, Giant (foxtail, giant; Preemergence, 250 g ai/ha): 98 | Plant response rating, Corn (corn [2]; [6]): 0 | Plant response rating, Corn (corn [2]; [7]): 0 | Plant response rating, Corn (corn [2]; [8]): 0 | Plant response rating, Corn (corn [2]; [9]): 0 | Corn plant response rating (corn [2]; Preemergence, 31 g ai/ha): 0 | Plant response rating, Corn (corn [2]; [10]): 10 | Plant response rating, Corn (corn [2]; [11]): 40 | Plant response rating (scale of 0 to 100), Corn (corn [2]; Preemergence, 250 g ai/ha): 65 | Plant response rating, Corn (corn [3]; [12]): 40 | Plant response rating, Corn (corn [3]; [13]): 70 | Corn plant response rating (corn [3]; 125 g ai/ha): 0 | Plant response rating, Corn (corn [3]; [15]): 40 | Plant response rating, Barnyardgrass (barnyardgrass [4]; [6]): 0 | Plant response rating, Barnyardgrass (barnyardgrass [4]; [7]): 35 | Plant response rating, Barnyardgrass (barnyardgrass [4]; [8]): 85 | Plant response rating, Barnyardgrass (barnyardgrass [4]; [9]): 90 | Barnyardgrass plant response rating (barnyardgrass [4]; Preemergence, 31 g ai/ha): 80 | Plant response rating, Barnyardgrass (barnyardgrass [4]; [10]): 85 | Plant response rating, Barnyardgrass (barnyardgrass [4]; [11]): 95 | Plant response rating (scale of 0 to 100; 0 is no effect, 100 is complete control), Barnyardgrass (barnyardgrass [4]; Preemergence, 250 g ai/ha): 98 | Plant response rating, Barnyardgrass (barnyardgrass [5]): 0 | Plant response rating, Soybean (soybean; [6]): 0 | Plant response rating, Soybean (soybean; [7]): 0 | Plant response rating, Soybean (soybean; [8]): 5 | Plant response rating, Soybean (soybean; [9]): 10 | Soybean plant response rating (soybean; Preemergence, 31 g ai/ha): 0 | Plant response rating, Soybean (soybean; [10]): 0 | Plant response rating, Soybean (soybean; [11]): 0 | Plant response rating (scale of 0 to 100), Soybean (soybean; Preemergence, 250 g ai/ha): 0

O=C1NCC(c2ccc(F)c(C(F)(F)F)c2)C1C(=O)Nc1ccccc1C(F)(F)F (racemic) [Compound 78]
Nutsedge, Yellow plant response rating (nutsedge, yellow; Preemergence, 31 g ai/ha): 0 | Plant response rating, Nutsedge, Yellow (nutsedge, yellow; [10]): 0 | Plant response rating, Nutsedge, Yellow (nutsedge, yellow; [11]): 0 | Plant response rating (scale of 0 to 100), Nutsedge, Yellow (nutsedge, yellow; Preemergence, 250 g ai/ha): 0 | Plant response rating, Barnyardgrass (barnyardgrass [1]; [12]): 50 | Plant response rating, Barnyardgrass (barnyardgrass [1]; [13]): 70 | Barnyardgrass plant response rating (barnyardgrass [1]; 125 g ai/ha): 80 | Plant response rating, Barnyardgrass (barnyardgrass [1]; [14]): 90 | Oilseed Rape plant response rating (oilseed rape; Preemergence, 31 g ai/ha): 0 | Plant response rating, Oilseed Rape (oilseed rape; [10]): 10 | Plant response rating, Oilseed Rape (oilseed rape; [11]): 10 | Plant response rating (scale of 0 to 100), Oilseed Rape (oilseed rape; Preemergence, 250 g ai/ha): 75 | Plant response rating, Ducksalad (ducksalad): 85 | Plant response rating, Rice (rice): 0 | Plant response rating, Pigweed (pigweed; [12]): 50 | Plant response rating, Pigweed (pigweed; [13]): 50 | Pigweed plant response rating (pigweed; 125 g ai/ha): 10 | Plant response rating, Pigweed (pigweed; [15]): 60 | Foxtail, Giant plant response rating (foxtail, giant; Preemergence, 31 g ai/ha): 85 | Plant response rating, Foxtail, Giant (foxtail, giant; [10]): 95 | Plant response rating, Foxtail, Giant (foxtail, giant; [11]): 95 | Plant response rating (scale of 0 to 100), Foxtail, Giant (foxtail, giant; Preemergence, 250 g ai/ha): 98 | Corn plant response rating (corn [2]; Preemergence, 31 g ai/ha): 0 | Plant response rating, Corn (corn [2]; [10]): 0 | Plant response rating, Corn (corn [2]; [11]): 40 | Plant response rating (scale of 0 to 100), Corn (corn [2]; Preemergence, 250 g ai/ha): 60 | Plant response rating, Corn (corn [3]; [12]): 20 | Plant response rating, Corn (corn [3]; [13]): 50 | Corn plant response rating (corn [3]; 125 g ai/ha): 0 | Plant response rating, Corn (corn [3]; [15]): 0 | Barnyardgrass plant response rating (barnyardgrass [4]; Preemergence, 31 g ai/ha): 60 | Plant response rating, Barnyardgrass (barnyardgrass [4]; [10]): 75 | Plant response rating, Barnyardgrass (barnyardgrass [4]; [11]): 85 | Plant response rating (scale of 0 to 100; 0 is no effect, 100 is complete control), Barnyardgrass (barnyardgrass [4]; Preemergence, 250 g ai/ha): 95 | Plant response rating, Barnyardgrass (barnyardgrass [5]): 0 | Soybean plant response rating (soybean; Preemergence, 31 g ai/ha): 0 | Plant response rating, Soybean (soybean; [10]): 0 | Plant response rating, Soybean (soybean; [11]): 0 | Plant response rating (scale of 0 to 100), Soybean (soybean; Preemergence, 250 g ai/ha): 0
